We go through 3 compounds from patent US9023789B2, “Amylin analogs and pharmaceutical compositions thereof” (Novo Nordisk A/S, priority 2012, dated 2015).

In general, pIC50 refers to the negative decadic logarithm of the IC50, by convention in mol/L.

The target in data set [1] is T1, human amylin 3(a) receptor (human calcitonin receptor + RAMP-3) in BHK570 cells (Homo sapiens, UniProt O60896+P30988).
T1 construct: expressed in transfected cells
Put plainly: ASSAY (II)a functional assay, human amylin receptor (CRE luciferase). Format: cell-based. Summed up: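 Readout is luminescence from a cAMP-responsive CRE-luc reporter, developed with LucLite for 30 min at room temperature. Cells were treated for 3 h at 37 °C in 10% FBS/DMEM buffered with 10 mM Hepes (pH 7.4).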

Data set [2] in a line: ASSAY (IV) determination of solubility. It counts as physicochemical. Summed up: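 UPLC read-out of polypeptide concentration after centrifugation. Samples: aqueous polypeptide stock ([…]) + 100 mM buffer 1:1, glycylglycine pH 3.0–5.0 or bistrispropane pH 6.0–8.0; 18 h, RT.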
The target of data set [3] is T2, human amylin receptor (membranes from Amylin 3(a)/CRE-luc cells) (Homo sapiens, UniProt O60896+P30988).
T2 construct: expressed in transfected cells
T2 sequence (P30988 25-474): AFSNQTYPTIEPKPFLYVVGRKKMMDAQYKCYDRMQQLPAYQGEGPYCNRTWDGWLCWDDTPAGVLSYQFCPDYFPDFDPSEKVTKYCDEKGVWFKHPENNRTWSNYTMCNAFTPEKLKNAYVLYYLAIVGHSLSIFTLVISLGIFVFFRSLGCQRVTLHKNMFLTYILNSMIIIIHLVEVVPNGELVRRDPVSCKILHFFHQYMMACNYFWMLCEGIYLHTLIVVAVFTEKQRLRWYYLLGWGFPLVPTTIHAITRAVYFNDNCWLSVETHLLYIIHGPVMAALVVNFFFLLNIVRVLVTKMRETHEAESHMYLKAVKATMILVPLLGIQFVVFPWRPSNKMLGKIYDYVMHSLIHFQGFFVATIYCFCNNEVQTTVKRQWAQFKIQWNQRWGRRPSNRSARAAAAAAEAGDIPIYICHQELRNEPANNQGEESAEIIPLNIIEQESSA
T2 sequence (O60896 24-148 partner): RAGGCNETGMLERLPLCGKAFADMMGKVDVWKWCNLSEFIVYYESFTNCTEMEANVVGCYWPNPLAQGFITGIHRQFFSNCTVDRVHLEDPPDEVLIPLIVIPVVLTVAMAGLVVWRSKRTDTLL
The experiment in a line: ASSAY (V) binding to the human amylin receptor (SPA, 125I-rat amylin).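 Further: competition binding of cell membranes (35 ng/µL) mixed with SPA beads in 384-well plates at 40 µL total volume, read by scintillation counting.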

Another data set deals with T3, rat calcitonin receptor (Rattus norvegicus, UniProt P32214).
T3 construct: expressed in transfected cells; host or cells: BHK tk'ts 13 (transient, FuGENE 6), membranes
T3 sequence (P32214 25-479 isoform P32214-2 limits assumed): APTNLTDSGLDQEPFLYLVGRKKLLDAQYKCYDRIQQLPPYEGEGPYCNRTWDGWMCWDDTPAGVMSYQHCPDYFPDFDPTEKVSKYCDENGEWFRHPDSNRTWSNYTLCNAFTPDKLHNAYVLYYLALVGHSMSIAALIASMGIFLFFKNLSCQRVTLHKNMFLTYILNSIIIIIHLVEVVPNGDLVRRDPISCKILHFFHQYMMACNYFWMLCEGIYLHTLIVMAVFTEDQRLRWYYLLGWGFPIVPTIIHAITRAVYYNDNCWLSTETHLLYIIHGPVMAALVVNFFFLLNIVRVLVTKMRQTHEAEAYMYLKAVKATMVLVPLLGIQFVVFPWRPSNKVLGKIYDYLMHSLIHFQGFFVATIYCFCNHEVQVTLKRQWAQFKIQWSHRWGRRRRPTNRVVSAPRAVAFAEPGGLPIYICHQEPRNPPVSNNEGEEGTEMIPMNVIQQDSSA
Put plainly: ASSAY (VIII) binding to the rat calcitonin receptor. The settings on record: Table 7, read-out: rCTR bind IC50. Summed up: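 Receptor source: membranes from transiently transfected BHK tk′ts 13 cells expressing rat calcitonin receptor, collected roughly 48 hours after transfection.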

The mark [4] stands for this setting: hCTR funct. EC50 divided by hAmylin-R funct. EC50.
Setting [5] is: hCTR funct. EC50 over hAmylin-R funct. EC50.
Where [6] appears, read: human functional selectivity: hCTR funct. EC50 / hAmylin-R funct. EC50.
The mark [7] stands for this setting: bistrispropane buffer, pH 6.5, read-out: Solubility pH 6.5 Concentration.
[8] abbreviates: bistrispropane buffer, pH 7.5, read-out: Solubility pH 7.5 Concentration.
Where [9] appears, read: bistrispropane buffer, pH 6.0, read-out: Solubility pH 6.0 Concentration.
The mark [10] stands for this setting: bistrispropane buffer, pH 7.0, read-out: Solubility pH 7.0 Concentration.
Setting [11] is: bistrispropane buffer, pH 8.0, read-out: Solubility pH 8.0 Concentration.
The mark [12] stands for this setting: glycylglycine buffer, pH 3.0, read-out: Solubility pH 3.0 Concentration.
[13] abbreviates: glycylglycine buffer, pH 4.0, read-out: Solubility pH 4.0 Concentration.
The mark [14] stands for this setting: glycylglycine buffer, pH 5.0, read-out: Solubility pH 5.0 Concentration.
Setting [15] is: Table 5, selectivity, hCTR bind IC50 / hAmylin-R bind IC50.
Where [16] appears, read: Table 5a, selectivity, hCTR bind IC50 / hAmylin-R bind IC50.
Setting [17] is: Table 7, human binding selectivity, included for comparison.
Where [18] appears, read: Table 7a (preferred compounds), human binding selectivity, included for comparison.
Where [19] appears, read: ratio of human calcitonin receptor binding IC50 to human amylin receptor binding IC50.
The mark [20] stands for this setting: Table 5b, selectivity, hCTR bind IC50 / hAmylin-R bind IC50.
The mark [21] stands for this setting: Table 5c, selectivity, hCTR bind IC50 / hAmylin-R bind IC50.

pIC50: −log10 of the molar value. Like-named read-outs stand apart in the source and are kept apart here. Some results are limits rather than exact numbers.

Take `CC[C@H](C)[C@H](NC(=O)[C@H](C)NC(=O)CNC(=O)[C@H](Cc1ccccc1)NC(=O)[C@H](CC(N)=O)NC(=O)[C@@H]1CCCN1C(=O)[C@H](CO)NC(=O)[C@H](CO)NC(=O)[C@H](Cc1c[nH]cn1)NC(=O)[C@H](CCCNC(=N)N)NC(=O)[C@H](CC(C)C)NC(=O)[C@H](Cc1ccccc1)NC(=O)[C@H](CC(N)=O)NC(=O)[C@H](C)NC(=O)[C@H](CC(C)C)NC(=O)[C@H](CCCNC(=N)N)NC(=O)[C@H](CCC(N)=O)NC(=O)[C@@H](NC(=O)[C@H](C)NC(=O)[C@@H]1CSSC[C@H](NC(=O)[C@@H](N)CCCCNC(=O)COCCOCCNC(=O)CC[C@H](NC(=O)CCCCCCCCCCCCCCCCCCC(=O)O)C(=O)O)C(=O)N[C@@H](CC(N)=O)C(=O)N[C@@H]([C@@H](C)O)C(=O)N[C@@H](C)C(=O)N[C@@H]([C@@H](C)O)C(=O)N1)[C@@H](C)O)C(=O)N1CCC[C@H]1C(=O)N[C@@H](CO)C(=O)N[C@@H](CO)C(=O)N[C@H](C(=O)N1CCC[C@H]1C(=O)N[C@H](C(=O)NCC(=O)N[C@@H](CO)C(=O)N[C@@H](CC(N)=O)C(=O)N[C@H](C(=O)N[C@@H](Cc1ccc(O)cc1)C(N)=O)[C@@H](C)O)C(C)C)[C@@H](C)O` [Example 49]: the “Ratio hCT/hAmylin funct.” value in data set [1] (setting [4]), in data set [1] (setting [5]) and in data set [1] (setting [6]) was 22.5 each time. For the same compound, the solubility at 18 h in data set [2] (setting [7]), in data set [2] (setting [8]), in data set [2] (setting [9]), in data set [2] (setting [10]), in data set [2] (setting [11]) and in data set [2] (setting [12]) was ≥ 200 µM throughout. The solubility at 18 h in data set [2] (setting [13]) and in data set [2] (setting [14]) was ≥ 200 µM each time. Moreover, the “Ratio hCT/hAmylin binding” value in data set [3] (setting [15]), in data set [3] (setting [16]), in data set [3] (setting [17]), in data set [3] (setting [18]) and in data set [3] (setting [19]) was 10.8 in each case. In addition, on rat calcitonin receptor, the negative-log IC50 (pIC50) is 7.29.

Consider `CC[C@H](C)[C@H](NC(=O)[C@H](C)NC(=O)CNC(=O)[C@H](Cc1ccccc1)NC(=O)[C@H](CC(N)=O)NC(=O)[C@@H]1CCCN1C(=O)[C@H](CO)NC(=O)[C@H](CO)NC(=O)[C@H](Cc1c[nH]cn1)NC(=O)[C@H](CCCNC(=N)N)NC(=O)[C@H](CC(C)C)NC(=O)[C@H](Cc1ccccc1)NC(=O)[C@H](Cc1c[nH]cn1)NC(=O)[C@H](C)NC(=O)[C@H](CC(C)C)NC(=O)[C@H](CCCNC(=N)N)NC(=O)[C@H](CCC(N)=O)NC(=O)[C@@H](NC(=O)[C@H](C)NC(=O)[C@@H]1CSSC[C@H](NC(=O)[C@@H](N)CCCCNC(=O)CC[C@H](NC(=O)CC[C@H](NC(=O)CCCCCCCCCCCCCCCCCCC(=O)O)C(=O)O)C(=O)O)C(=O)N[C@@H](CC(N)=O)C(=O)N[C@@H]([C@@H](C)O)C(=O)N[C@@H](C)C(=O)N[C@@H]([C@@H](C)O)C(=O)N1)[C@@H](C)O)C(=O)N1CCC[C@H]1C(=O)N[C@@H](CO)C(=O)N[C@@H](CO)C(=O)N[C@H](C(=O)N[C@@H](CC(N)=O)C(=O)N[C@H](C(=O)NCC(=O)N[C@@H](CO)C(=O)N[C@@H](CC(N)=O)C(=O)N[C@H](C(=O)N[C@@H](Cc1ccc(O)cc1)C(N)=O)[C@@H](C)O)C(C)C)[C@@H](C)O` [Example 92], for which the “Ratio hCT/hAmylin funct.” value in data set [1] (setting [4]), in data set [1] (setting [5]) and in data set [1] (setting [6]) was 28.0 in each case. In addition, the solubility at 18 h in data set [2] (setting [7]), in data set [2] (setting [8]), in data set [2] (setting [9]), in data set [2] (setting [10]), in data set [2] (setting [11]) and in data set [2] (setting [12]) was ≥ 200 µM throughout. For the same compound, the solubility at 18 h in data set [2] (setting [13]) and in data set [2] (setting [14]) was ≥ 200 µM each time. Besides, the “Ratio hCT/hAmylin binding” value in data set [3] (setting [15]), in data set [3] (setting [16]), in data set [3] (setting [20]), in data set [3] (setting [21]), in data set [3] (setting [17]) and in data set [3] (setting [18]) was 145.0 in each case. Further, the “Ratio hCT/hAmylin binding” value in data set [3] (setting [19]) is 145.0. The pIC50 at rat calcitonin receptor is 6.98.

Turning to `CC[C@H](C)[C@H](NC(=O)[C@H](C)NC(=O)CNC(=O)[C@H](Cc1ccccc1)NC(=O)[C@H](CC(N)=O)NC(=O)[C@@H]1CCCN1C(=O)[C@H](CO)NC(=O)[C@H](CO)NC(=O)[C@H](Cc1c[nH]cn1)NC(=O)[C@H](CCCNC(=N)N)NC(=O)[C@H](CC(C)C)NC(=O)[C@H](Cc1ccccc1)NC(=O)[C@H](CCCNC(=N)N)NC(=O)[C@H](C)NC(=O)[C@H](CC(C)C)NC(=O)[C@H](CCCNC(=N)N)NC(=O)[C@H](CCC(N)=O)NC(=O)[C@@H](NC(=O)[C@H](C)NC(=O)[C@@H]1CSSC[C@H](NC(=O)[C@@H](N)CCCCNC(=O)CC[C@H](NC(=O)CCCCCCCCCCCCCCCCCCC(=O)O)C(=O)O)C(=O)N[C@@H](CC(N)=O)C(=O)N[C@@H]([C@@H](C)O)C(=O)N[C@@H](C)C(=O)N[C@@H]([C@@H](C)O)C(=O)N1)[C@@H](C)O)C(=O)N1CCC[C@H]1C(=O)N[C@@H](CO)C(=O)N[C@@H](CO)C(=O)N[C@H](C(=O)N[C@@H](CC(N)=O)C(=O)N[C@H](C(=O)NCC(=O)N[C@@H](CO)C(=O)N[C@@H](CC(N)=O)C(=O)N[C@H](C(=O)N[C@@H](Cc1ccc(O)cc1)C(N)=O)[C@@H](C)O)C(C)C)[C@@H](C)O` [Example 83], the “Ratio hCT/hAmylin funct.” value in data set [1] (setting [4]), in data set [1] (setting [5]) and in data set [1] (setting [6]) was 41.6 each time. For the same compound, the solubility at 18 h in data set [2] (setting [7]), in data set [2] (setting [8]), in data set [2] (setting [9]), in data set [2] (setting [10]), in data set [2] (setting [11]) and in data set [2] (setting [12]) was ≥ 200 µM throughout. The solubility at 18 h in data set [2] (setting [13]) and in data set [2] (setting [14]) was ≥ 200 µM each time. Further, the “Ratio hCT/hAmylin binding” value in data set [3] (setting [15]), in data set [3] (setting [16]), in data set [3] (setting [20]), in data set [3] (setting [21]), in data set [3] (setting [17]) and in data set [3] (setting [18]) was 145.6 in each case. In addition, the “Ratio hCT/hAmylin binding” value in data set [3] (setting [19]) is reported as 145.6. The pIC50 on rat calcitonin receptor was 6.85.
